Where two headings read alike, the source gives them in different places.
How the values were obtained:
ROCK2 = ROCK2 (Homo sapiens (Human), UniProt O75116); experiment: ROCK2 kinase inhibition assay (peptide phosphorylation, LABCHIP 3000); type: biochemical; conditions: 7 μM ATP, 2.5 nM ROCK2, 3 hours at 25° C.
MV411 cell line = experiment: Cell viability assay ([…]-GLO), MV411; type: cell-based; conditions: for IC50: Homo sapiens, MV4-11, MV411 (ITD-FLT3+), 72 hours treatment; for FLT3-ITD+ Selectivity (K562/MV411): ratio K562/MV411
Procedure: Cell viability was measured by the […] -GlO® cell viability assay from Promega (Madison, Wis.). The […] -GlO Luminescent Cell Viability Assay is a homogeneous method to determine the number of viable cells in culture based on quantitation of the ATP present, which signals the presence of metabolically active cells. Following treatment, […] -GlO® is added to treatment wells and incubated at 37° C. Luminescence values were measured at using a Molecular Devices Spectramax microplate reader.

ROCK1 = ROCK1 (Homo sapiens (Human), UniProt Q13464); experiment: ROCK1 kinase inhibition assay (peptide phosphorylation, LABCHIP 3000); type: biochemical; conditions: 5 μM ATP, 3 nM ROCK1, 3 hours at 25° C.
Procedure: The peptide is phosphorylated by the protein kinase ROCK1 or ROCK2. The ROCK1 or ROCK2 enzyme, substrate, and cofactors (ATP and Mg^2+) are combined in a well of a microtiter plate and incubated for 3 hours at 25° C. in the presence or absence of an inhibitor compound. At the end of the incubation, the reaction is quenched by the addition of an EDTA-containing buffer. The substrate and product are separated and quantified electrophoretically using the microfluidic-based LABCHIP® 3000 Drug Discovery System from Caliper Life Sciences (Hopkinton, Mass.).
The components of the assay mixture are:
10 μM Sodium Orthovanadate
10 LM Beta-Glycerophosphate
5 μM ATP (for ROCK1) or 7 μM ATP (for ROCK2)
3 nM ROCK1 or 2.5 nM ROCK2 enzyme
Substrate and product peptides present in each sample are separated electrophoretically using the LABCHIP® 3000 capillary electrophoresis instrument. […] Change in the relative fluorescence intensity of the substrate and product peaks is the parameter measured reflecting enzyme activity. Capillary electrophoregramms (RDA acquisition files) are analyzed using HTS Well Analyzer software (Caliper Life Sciences, Hopkinton, Mass.). The kinase activity in each sample is determined as the product to sum ratio (PSR): P/(S+P), where P is the peak height of the product peptide and S is the peak height of the substrate peptide. For each compound, enzyme activity is measured at various concentrations (12 concentrations of compound spaced by 3× dilution intervals). Negative control samples (0%-inhibition in the absence of inhibitor) and positive control samples (100%-inhibition in the presence of 20 mM EDTA) are assembled in replicates of four and are used to calculate %-inhibition values for each compound at each concentration. Percent inhibition (Pinh) is determined using the following equation: Pinh=(PSRO %−PSRinh)/(PSRO %−PSR100%)*100
where PSRinh is the product sum ratio in the presence of inhibitor, PSRO % is the average product sum ratio in the absence of inhibitor, and PSR100% is the average product sum ratio in 100%-inhibition control samples. The IC50 values of inhibitors are determined by fitting the inhibition curves (Pinh versus inhibitor concentration) by the 4-parameter sigmoidal dose-response model using XLfit 4 software (IBDS).

K562 cell line = experiment: Cell viability assay ([…]-GLO), K562; type: cell-based; conditions: Homo sapiens; K562 (does not express ITD-FLT3), 72 hours treatment
Procedure: Cell viability in the presence of varying concentrations of the above listed compounds at different time points was used to assess cytotoxicity and the effect of the compounds on cell proliferation.
Cell viability was measured by the […]-GlO® cell viability assay from Promega (Madison, Wis.). The […]-GlO Luminescent Cell Viability Assay is a homogeneous method to determine the number of viable cells in culture based on quantitation of the ATP present, which signals the presence of metabolically active cells. Following treatment, […]-GlO® is added to treatment wells and incubated at 37° C. Luminescence values were measured at using a Molecular Devices Spectramax microplate reader.
Cells were grown to 70% confluency, trypsinized, counted, and seeded in 96 well flat-bottom plates at a final concentration of 2.5×10^3-5×10^3 cells/well (Day 0). Cells were allowed to incubate in growth media for 24 hours. Treatment with the test agents or standard agents began on Day 1 and continued for 72 hours. At the 72-hour time point, treatment containing media was removed. Viable cell numbers were quantified by the […]-GLO® cell viability assay as described above. Results from these studies were used to calculate an IC50 value (concentration of drug that inhibits cell growth by 50 percent of control) for each compound.
For single agent and combination studies, data from each experiment was collected and expressed as % Cell Growth using the following calculation: % Cell Growth=(ftest/fvehicle)×100
Where ftest is the luminescence of the tested sample, and fvehicle is the luminescence of the vehicle in which the drug is dissolved. Dose response graphs and IC50 values were generated using Prism 6 software (GraphPad) using the following equation: Y=(Top−Bottom)/(1+10^((logIC50-X)−HillSlope))
Where X is the logarithm of the concentration and Y is the response. Y starts at the Bottom and goes to the Top with a sigmoid shape.
The experiments also evaluated the selectivity of the compounds for inhibiting growth of cancer cells carrying a mutation in the Flt3 gene. The MV411 cell line expresses the mutant allele of Flt3 with internal tandem duplications (ITD) of the gene. See Quentmeier et al., “FLT3 Mutations in Acute Myeloid Leukemia Cell Lines,” Leukemia 17(1), 2003, 120-124. […] See Grafone et al., “Monitoring of FLT3 Phosphorylation Status and Its Response to Drugs By Flow Cytometry in AML Blast Cells,” Hematol Oncol. 26(3), 2008, 159-166.

[1] = Pharmacokinetic activity in mice; type: in vivo; conditions: for AUC(0-t): read-out: AUC0-8
Procedure: Compounds were individually and accurately weighed out to produce a stock solution in Dimethyl-sulfoxide (DMSO) at a concentration of 2 mg/mL and stored at −20° C. From the stock solution, a working stock was prepared by diluting it in Methanol-Water 50:50 (v/v) at 20 μg/mL for calibration curve preparation and stored at 4° C. Standards used for quantitation and quality control samples (QCs) were prepared on the same day of sample processing using blank plasma obtained from non-treated mice. For each analyte, standards were prepared through serial dilutions of the working stock at concentrations of 0.1, 0.5, 1.0, 10, 50, 100, 500, and 1000 ng/mL; QCs were prepared at intermediate concentrations of 0.75, 7.5, 75, and 750 ng/mL. Plasma samples were stored at −80° C. until ready for analysis and then placed on ice for thawing. An aliquot of […] samples, standards, or QCs, were transferred into a 96-well extraction plate according to a pre-defined layout. An appropriate volume of Methanol-Formic Acid 99.9-0.1 containing internal standard (Verapamil at 25 ng/mL) was added to each well and the samples were extracted under vacuum. Eluent was then transferred into a LCMS plate for analysis using a suitable column for separation and MRM detection. Concentration of analytes was calculated based on the calibration curve and analyzed for pharmacokinetic parameters by using Non-compartmental analysis (NCA). Parameters such as Cmax, Tmax, half-life, AUC(0-last), AUC(0-∞), volume of distribution (Vss), and clearance (Cl/F) were reported.

Sequence of ROCK2 (O75116 whole entry, species assumed): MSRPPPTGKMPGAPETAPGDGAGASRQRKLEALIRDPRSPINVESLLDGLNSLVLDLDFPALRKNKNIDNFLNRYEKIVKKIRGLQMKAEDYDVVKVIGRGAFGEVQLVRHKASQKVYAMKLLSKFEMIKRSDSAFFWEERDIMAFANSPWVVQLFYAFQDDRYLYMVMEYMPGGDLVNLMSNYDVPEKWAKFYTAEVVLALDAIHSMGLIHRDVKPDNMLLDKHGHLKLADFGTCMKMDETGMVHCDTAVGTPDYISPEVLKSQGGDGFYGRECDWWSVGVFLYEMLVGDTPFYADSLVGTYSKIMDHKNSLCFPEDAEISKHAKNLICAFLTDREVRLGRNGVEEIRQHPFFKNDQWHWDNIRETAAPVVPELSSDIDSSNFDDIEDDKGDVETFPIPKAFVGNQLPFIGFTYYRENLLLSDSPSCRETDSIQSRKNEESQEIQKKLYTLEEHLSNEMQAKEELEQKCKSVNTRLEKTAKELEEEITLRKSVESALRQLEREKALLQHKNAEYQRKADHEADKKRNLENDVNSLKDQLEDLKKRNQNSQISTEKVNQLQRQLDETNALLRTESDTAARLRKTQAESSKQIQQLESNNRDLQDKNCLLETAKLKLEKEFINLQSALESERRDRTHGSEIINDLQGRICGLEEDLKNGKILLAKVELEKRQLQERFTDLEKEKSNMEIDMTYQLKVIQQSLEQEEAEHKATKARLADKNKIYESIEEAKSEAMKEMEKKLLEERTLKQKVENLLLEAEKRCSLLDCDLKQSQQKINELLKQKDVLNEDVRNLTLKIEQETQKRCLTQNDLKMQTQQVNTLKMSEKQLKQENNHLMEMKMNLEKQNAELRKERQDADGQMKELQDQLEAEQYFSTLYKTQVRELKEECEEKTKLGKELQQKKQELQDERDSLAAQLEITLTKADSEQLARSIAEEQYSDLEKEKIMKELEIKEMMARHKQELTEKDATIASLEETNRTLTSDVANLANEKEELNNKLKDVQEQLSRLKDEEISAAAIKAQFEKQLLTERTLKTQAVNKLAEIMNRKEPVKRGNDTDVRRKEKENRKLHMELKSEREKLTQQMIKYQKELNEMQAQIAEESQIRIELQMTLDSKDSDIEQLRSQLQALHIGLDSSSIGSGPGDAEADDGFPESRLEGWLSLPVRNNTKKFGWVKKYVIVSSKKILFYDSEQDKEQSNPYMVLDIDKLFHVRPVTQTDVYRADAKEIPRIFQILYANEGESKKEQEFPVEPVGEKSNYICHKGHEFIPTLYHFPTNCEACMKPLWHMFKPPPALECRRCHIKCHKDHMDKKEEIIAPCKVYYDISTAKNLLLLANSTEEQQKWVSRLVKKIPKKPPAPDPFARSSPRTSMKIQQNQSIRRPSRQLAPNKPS
Sequence of ROCK1 (Q13464 whole entry, species assumed): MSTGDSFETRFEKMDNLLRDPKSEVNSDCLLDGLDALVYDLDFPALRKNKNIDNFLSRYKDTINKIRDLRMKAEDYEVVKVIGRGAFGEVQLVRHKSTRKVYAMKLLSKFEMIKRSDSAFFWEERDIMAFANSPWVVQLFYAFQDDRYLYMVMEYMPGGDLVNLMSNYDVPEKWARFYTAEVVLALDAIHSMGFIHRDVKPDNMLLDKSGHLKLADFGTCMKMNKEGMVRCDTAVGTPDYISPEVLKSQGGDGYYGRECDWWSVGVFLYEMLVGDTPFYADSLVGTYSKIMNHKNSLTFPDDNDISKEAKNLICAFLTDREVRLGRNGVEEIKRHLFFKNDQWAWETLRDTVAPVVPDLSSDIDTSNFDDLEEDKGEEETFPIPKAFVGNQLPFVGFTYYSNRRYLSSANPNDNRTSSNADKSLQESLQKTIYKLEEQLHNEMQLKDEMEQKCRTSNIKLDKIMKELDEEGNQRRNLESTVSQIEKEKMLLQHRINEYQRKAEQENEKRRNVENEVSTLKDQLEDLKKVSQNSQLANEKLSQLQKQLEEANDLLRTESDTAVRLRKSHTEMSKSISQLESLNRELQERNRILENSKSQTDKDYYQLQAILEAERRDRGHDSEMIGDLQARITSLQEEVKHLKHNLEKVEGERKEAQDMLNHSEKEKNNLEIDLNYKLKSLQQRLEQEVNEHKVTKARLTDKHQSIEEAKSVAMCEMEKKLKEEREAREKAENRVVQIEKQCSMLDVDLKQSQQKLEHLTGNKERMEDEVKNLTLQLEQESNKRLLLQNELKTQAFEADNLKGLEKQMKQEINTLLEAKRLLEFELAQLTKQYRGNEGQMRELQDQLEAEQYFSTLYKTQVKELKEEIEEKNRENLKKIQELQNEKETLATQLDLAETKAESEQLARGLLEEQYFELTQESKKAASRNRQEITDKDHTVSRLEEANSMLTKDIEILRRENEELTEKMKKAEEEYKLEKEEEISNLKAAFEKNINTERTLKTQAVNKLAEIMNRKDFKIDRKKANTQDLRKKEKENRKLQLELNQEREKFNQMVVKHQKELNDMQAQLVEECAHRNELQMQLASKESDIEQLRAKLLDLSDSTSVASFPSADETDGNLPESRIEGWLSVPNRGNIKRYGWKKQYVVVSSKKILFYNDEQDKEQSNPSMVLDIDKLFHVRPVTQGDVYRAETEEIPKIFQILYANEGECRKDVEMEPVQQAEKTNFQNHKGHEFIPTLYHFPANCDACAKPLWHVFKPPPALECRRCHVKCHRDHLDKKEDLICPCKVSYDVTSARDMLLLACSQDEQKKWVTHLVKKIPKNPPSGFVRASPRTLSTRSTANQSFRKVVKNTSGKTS

Row | Compound | IC50 (ROCK2) | IC50 (MV411 cell line) | FLT3-ITD+ Selectivity (K562/MV411) (MV411 cell line) | IC50 (ROCK1) | IC50 (K562 cell line) | further results
1 | CN1CCn2nc(NC(=O)c3cccc(CNC(=O)c4ccc(-c5ccncc5)cc4)c3)cc2C1 [Compound 1] | 6 nM | 8900 nM | >11 | 11.6 nM | > 100000 nM | –
2 | CN1CCc2ccc(NC(=O)c3cccc(C(CO)NC(=O)c4ccc(-c5ccncc5)cc4)c3)cc2C1 (stereo not drawn) [Compound 2] | 2.8 nM | – | – | 2.8 nM | – | –
3 | O=C(COc1cccc(CNC(=O)c2ccc(-c3ccncc3)cc2)c1)NC1CC1 [Compound 3] | 14.2 nM | 2400 nM | >42 | 38.8 nM | > 100000 nM | –
4 | CN(C)CCNC(=O)COc1cccc(CNC(=O)c2ccc(-c3ccncc3)cc2)c1 [Compound 4] | 18.9 nM | – | – | 56.1 nM | – | –
5 | CC(C)NC(=O)c1cccc(CNC(=O)c2ccc(-c3ccncc3)cc2)c1 [Compound 5] | 6.7 nM | 1500 nM | >68 | 21.7 nM | > 100000 nM | –
6 | CN1CCc2ccc(NC(=O)c3cccc([C@@H](CO)NC(=O)c4ccc(-c5ccncc5)cc4)c3)cc2C1 [Compound 7] | 1.5 nM | 60 nM | 333 | – | 20400 nM | AUC % Extrap ([1]; IV - 1 mg/kg): 3.29%; Cl/F obs ([1]; IV - 1 mg/kg): 68.7 mL/min/kg; R-sq ([1]; IV - 1 mg/kg): 0.88; R-sq ([1]; PO - 5 mg/kg): 0.47; AUC(0-inf) ([1]; mouse, plasma, IV - 1 mg/kg): 243 ng·h/mL; C0 ([1]; mouse, plasma, IV - 1 mg/kg): 411 ng/mL; Cmax ([1]; mouse, plasma, IV - 1 mg/kg): 190 ng/mL; Tmax ([1]; mouse, plasma, IV - 1 mg/kg): 0.25 h; half-life ([1]; mouse, plasma, IV - 1 mg/kg): 6.43 h; AUC(0-t) ([1]; mouse, plasma, IV - 1 mg/kg): 235 ng·h/mL; Vd ([1]; mouse, plasma, IV - 1 mg/kg, read-out: Vss): 16.3 L/kg; Cmax ([1]; mouse, plasma, PO - 5 mg/kg): 5.3 ng/mL; Tmax ([1]; mouse, plasma, PO - 5 mg/kg): 1 h; AUC(0-t) ([1]; mouse, plasma, PO - 5 mg/kg): 81.6 ng·h/mL
7 | O=C(NCC1CCCCC1)c1cccc([C@@H](CO)NC(=O)c2ccc(-c3ccncc3)cc2)c1 [Compound 21] | 1 nM | 2100 nM | 19 | 3.1 nM | 39000 nM | –
8 | O=C(NCC1CCC(F)(F)CC1)c1cccc([C@@H](CO)NC(=O)c2ccc(-c3ccncc3)cc2)c1 [Compound 24] | 1.2 nM | 1500 nM | 19 | 2.2 nM | 28000 nM | –
9 | O=C(NC1CCCCC1)c1cccc([C@@H](CO)NC(=O)c2ccc(-c3ccncc3)cc2)c1 [Compound 26] | 1.5 nM | 7400 nM | 6 | 3.7 nM | 48000 nM | –
10 | Cn1ccc2ccc(NC(=O)c3cccc([C@@H](CO)NC(=O)c4ccc(-c5ccncc5)cc4)c3)cc2c1=O [Compound 28] | 1.1 nM | 2400 nM | >42 | 1.6 nM | > 100000 nM | –
11 | CN(C)c1ccc(CNC(=O)c2cccc([C@@H](CO)NC(=O)c3ccc(-c4ccncc4)cc3)c2)cc1 [Compound 30] | 1.5 nM | – | – | 2.9 nM | – | –
12 | CN(C)c1cccc(CNC(=O)c2cccc([C@@H](CO)NC(=O)c3ccc(-c4ccncc4)cc3)c2)c1 [Compound 31] | 1 nM | – | – | 2.1 nM | – | –
13 | CN(C)Cc1ccc(CNC(=O)c2cccc([C@@H](CO)NC(=O)c3ccc(-c4ccncc4)cc3)c2)cc1 [Compound 32] | 0.9 nM | 60 nM | 619 | 1.4 nM | 37000 nM | –

— patent publication US10738007B2, “Amide compounds as kinase inhibitors, compositions and methods of treatment” (TRANSLATIONAL DRUG DEVELOPMENT, LLC, priority 2016, dated 2020)
